Measurements as given in patent publication US8569372B2, “Method for preventing or treating a disease, disorder or condition induced by retina ischemia” (priority 2011, dated 2013).

Assays:
VEGF = assay: ELISA of VEGF protein in RGC-5 cells under H2O2 oxidative stress; format: cell-based; details: 100 μM SAC 15-minute pre-treatment, 500 μM H2O2 24 hours; control 91.91±21.72, H2O2 250.55±39.63; n=6
Procedure: In the enzyme-linked immunosorbent assay (ELISA), the cells (2.5×10^4 in each well) were plated into 96-well plates. Each well contains 200 μl of DMEM (control) without or with H2O2. Next, the cells were incubated at 37° C. for 1 day and then shifted to serum free medium for the following day. In order to stimulate oxidative stress, 500 μM H2O2 (Sigma-Aldrich 18304/k0250, St Louis, Mo., USA) was then added for 24 hours as described elsewhere. Depending on the experimental protocol, SAC or vehicle was added to some samples 15 minutes before adding H2O2. […] Total protein was determined using a bicinchoninic acid protein kit (Thermo Fisher Scientific Inc., IL, U.S.A.). The HIF-1 Alpha/VEGF/MMP-9 levels in the cells/medium were measured using various ELISA kits, namely HIF-1 Alpha (Uscn Life Science Inc., Wuhan 430056, China); VEGF-A (BMS277/2, Bender […], Austria) and MMP-9 Duoset (D911, R&D, Minneapolis, Minn., U.S.A.). […] The HIF-1 Alpha/VEGF/MMP-9 concentration of each sample was determined by constructing a standard curve using 100 μl of sample diluent containing various amounts of HIF-1 Alpha/VEGF/MMP-9 pure protein (0-1000 pg/ml). […] The absorbance (optical intensity, O.D.) was detected at 450 nm by spectrophotometer (ELx800, Biotek, Winooski, Vt., U.S.A.). […]

Thy-1 mRNA = assay: Real-time PCR of retinal mRNA after ischaemia/reperfusion: Thy-1; format: in vivo, Wistar rats; details: 100 μM SAC pre-treatment, 24 hours after I/R; control 3.28±1.09, vehicle 0.29±0.07; n=6
Procedure: (§1) The rats (200-250 g) were anaesthetized and placed in a stereotaxic frame. The anterior chamber of one eye was cannulated with a 30-gauge needle connected to a 0.9% saline reservoir; this caused a high IOP (HIOP) of 120 mmHg for 60 minutes. Eye fundus whitening and a low ERG response confirmed induction of an ischaemic insult. A sham procedure was carried out on the controls. Drug administration involved the pre-administration (15-minute before 60-minute HIOP induced retinal ischaemia) of SAC (25, 50, 100 μM) or vehicle (saline; control). The ischemic eye of each test rat was treated with or without a single intravitreous injection of 5 μl of the test compound. […] The levels of Thy-1, HIF-1 Alpha, VEGF and MMP-9 mRNAs present in the retinas were determined using a real-time PCR technique. […] Relative quantification (a comparative method) was performed using the house keeping gene Beta-actin as the internal standard. This process allows the normalized quantification of the mRNA target (Ct) and takes into account the differences in the amount of total RNA added to each reaction (ΔCt). The relative HIF-1 Alpha/VEGF/MMP-9 expression changes were calculated as fold changes relative to the control with respect to the calibrator (ΔΔCt), which was represented by the control retina. […] The data obtained for each treatment were pooled, and a total percentage change relative to the control was calculated. […]

HIF-1 Alpha mRNA = assay: Real-time PCR of retinal mRNA after ischaemia/reperfusion: HIF-1 Alpha; format: in vivo, Wistar rats; details: 100 μM SAC pre-treatment, 24 hours after I/R; control 0.56±0.15, vehicle 1.23±0.23; n=6
Procedure: as §1

C=CCSC[C@H](N)C(=O)O [SAC, S-allyl L-cysteine]
VEGF protein level (ELISA) (VEGF): 121.61 ± 12.54 pg/mL | Thy-1:β-actin mRNA ratio in the retina (Thy-1 mRNA): 1.25±0.30 | HIF-1 Alpha mRNA ratio in the retina (HIF-1 Alpha mRNA): 0.76±0.09
